Laboratory results: patent US20020090619A1, “Methods for identifying mitochondrial divalent cation transporters” (priority 2000, published 2002)

Legend:
[1] = ETH 129 mediated cation transport into Quin-2 loaded POPC vesicles; format: biochemical; settings: 1.0 mM CaCl2, no Val, FIG. 5
Description: Unilamellar vesicles loaded with Quin-2 were prepared from 1-palmitoyl-2-oleoyl-sn-glycerophosphatidylcholine (POPC) by freeze-thaw extrusion (Erdahl et al., 1994 Biophys. J. 66:1678; Erdahl et al., 1995 Biophys. J. 69:2350). The formation medium contained 5 mM Quin-2 (K+), 10 mM Hepes (K+), pH 7.00, and 100 mM KCl. A high internal K+ concentration was sought to allow the generation of membrane potentials of varying magnitude (see below). The preparations obtained were applied to Sephadex™ G-50 mini-columns (Pharmacia, Piscataway N.J.) and eluted by low speed centrifugation (Fry et al., 1978 Anal. Biochem. 90:809), to replace the external medium with a 10 mM Hepes buffer (Na+), pH 7.00 (Erdahl et al., 1994 Biophys. J. 66:1678; Erdahl et al., 1995 Biophys. J. 69:2350). The nominal concentration of POPC in final preparations was determined as lipid phosphorus (Bartlett, 1959 J Biol. Chem. 234:466) and was near 80 mM. The average diameter of these vesicles was 71 nm as determined by freeze-fracture electron microscopy (Chapman et al., 1990 Chem. Phys. Lipids 55:73). They contained entrapped K+ at approximately 125 mM, as determined by atomic absorption spectroscopy, and Quin-2 at approximately 6 mM. The latter value was determined by titrating lysed vesicles with a standard solution of CaCl2 and was about one third of the expected value (Erdahl et al., 1995 Bipohys. J. 69:3250). The high solute level in the formation medium reduced the efficiency of Quin-2 entrapment by reducing the effectiveness of a freeze-thaw driven solute concentrating mechanism that normally elevates the internal concentrations of solutes, relative to the external medium (Chapman et al., 1990 Chem. Phys. Lipids 55:73; Chapman et al., 1990 Chem. Phys. Lipids 60:201).
POPC vesicles containing Quin-2 were utilized at a nominal phospholipid concentration of 1.0 mM, and at 25° C. The external medium contained polyvalent cation salts as described below, 100 mM NaCl, or mixtures of NaCl and KCl totaling […], and 10 mM Hepes, pH 7.00, unless otherwise noted. The medium pH was adjusted with NaOH that had been passed over Chelex 100 columns to remove contaminating cations (Erdahl et al., 1994 Biophys. J. 66:1678). In most cases an inside negative membrane electrical potential was present during the experiments. This was generated by the presence of 0.5 μM valinomycin (Val), which transports K+ out of the vesicles electrogenically (Erdahl et al., 1994 Biophys. J. 66:1678). The magnitude of the potential was controlled by varying the concentration ratio of Na+ to K+ in the external medium. A TPP+electrode was used to measure the potential (Broekemeier et al, 1998 Biochem. 37:13059), and thereby to verify that the calculated values were obtained. For these purposes the incubation medium contained 2.0 μM TPP.Cl and the entrapped volume was taken to be 2.02 μl/ml at a nominal POPC concentration of 1.0 mM (Chapman et al., 1990 Chem. Phys. Lipids 55:73).
Val was omitted when an imposed membrane potential was not desired, or in some cases 5 μM of the protonophore carbonyl cyanide m-chlorophenylhydrazone (CCP) was present instead of Val.
The transport of polyvalent cations was monitored by difference absorbance measurements which detected formation of the Quin-2:cation complex within the vesicle lumen. An Aminco DW2a spectrophotometer operated in the dual wavelength mode was employed. In addition, an Oriel No. 59800 band pass filter was used between the cuvette and the beam scrambler-photomultiplier assembly to prevent detection of the fluorescent light emitted by Quin-2. The sample wavelength for all cations was 264 nm. The reference wavelengths were at an isosbestic point in the Quin-2/Quin-2:cation complex difference spectrum of interest. These wavelengths varied slightly from cation to cation, as previously described (Erdahl et al., 1996 Biochem. 35:13817). […]

yeast mitochondria = assay: Membrane potential ΔΨ of isolated yeast mitochondria (safranin O); format: biochemical, Saccharomyces cerevisiae; settings: for effect on the depression of ΔΨ produced by ETH 129 plus Ca2+: 60 μM CaCl2, 3.6 μM ETH 129
Description: The yeast strain W303-1A (Saccharomyces cerevisiae) was grown aerobically at 30° C. in a medium containing 2% lactate, 1% yeast extract, 2% peptone, 0.05% dextrose, and 0.01% adenine at pH 5.0, and cells were harvested during the logarithmic phase (A600=1.8−2.2). Mitochondria were isolated from spheroplasts as previously described (Jung et al., 1997 J. Biol. Chem. 272:21104), except that 0.6 M sucrose was used in the homogenization medium instead of 0.6 M mannitol (Daum et al., 1982 J. Biol. Chem. 257:13028). The resulting preparations were maintained on ice and were suspended in 0.6 M mannitol 20 mM HEPES (K+) (pH 6.8), containing 0.75 mg/ml BSA and 0.1 mM EGTA. Protein concentration was determined by a reduced volume Biuret method in which 50 μl of the final preparation were solubilized by adding an equal volume of 10% deoxycholate (Na+), with 0.4 ml of Biuret reagent added to the resulting mixture. BSA was employed as the standard.
Unless otherwise noted, mitochondria were incubated at 1 mg protein/ml and at approximately 25° C. in a medium that contained 0.6 M mannitol, 10 mM Pi (K+), 10 mM Hepes (TEA+), pH 7.2, plus 1 mM ethanol as an oxidizable substrate. Compounds having a low solubility in water were added from stock solutions prepared in methanol or DMSO. Ca2+ transport and membrane potential were monitored using the indicating dyes antipyrylazo III (ΔA720-790) and safranin O (ΔA511-533), respectively (Akerman et al., 1976 FEBS Lett. 68:191; Scarpa et al., 1978 Biochem. 17:1378). An SLM Aminco DW-2C spectrophotometer operated in the dual wavelength mode was employed for these purposes. The same instrument, operated in split beam mode, was used to monitor mitochondrial swelling as a decrease in apparent absorbance of mitochondrial suspensions at 540 nm. Oxygen consumption data were obtained using a Clark-type electrode in parallel experiments. Atomic absorption spectroscopy was utilized to monitor the transport of other cations by yeast mitochondria. Briefly, samples were taken at appropriate times and the mitochondria were rapidly sedimented in a microcentrifuge. After carefully removing supernatants, the pellets were solubilized with 2 N percholoric acid (overnight) and centrifuged a second time. The resulting supernatants were diluted with an appropriate volume of distilled water and the concentration of the cation in question was subsequently determined.

[2] = tested on: isolated yeast mitochondria; assay: Ca2+ transport in isolated yeast mitochondria expressing aequorin (luminescence); format: biochemical, Saccharomyces cerevisiae; settings: for Rate of increase in matrix Ca^2+ concentration / % of Control: external free Ca^2+ 0.8 μM, agent 1 μM; for Rate of increase in matrix Ca^2+ concentration: triplicate; for % of Control: rate of increase in matrix Ca^2+
Description: For preculture, the transformant was inoculated into 50 ml of SC-U plus 2% glucose, and incubated in an air shaker at 180 rpm and 30° C. At 24 hr, the preculture was transferred to 500 ml of a medium containing 1% yeast extract, 2% peptone, 2% lactate, 1% galactose, 0.012% adenine, pH 5 w/NaOH, and growth was continued under conditions which were otherwise the same. Cells were harvested after an additional 24 hr, spheroplasts were prepared using zymolyase, and mitochondria were isolated by the method of Daum et al. (1982) as previously described (Jung et al., 1997). The final pellet was resuspended at ˜20 mg protein/ml in 0.6 M mannitol, 20 mM HEPES (K^+ salt, pH 6.8). Apoaequorin in the intact or disrupted mitochondria was reconstituted by incubation with coelenterazine as described above for cells.
For most experiments, the mitochondria were present at 0.4 mg protein/ml in a standard medium that contained 0.3 M KCl, 20 mM HEPES, (K^+ salt, pH 7.10), 10 mM KH2PO4, 2 mM EGTA, and 2 mM MgCl2. Other additions are described in greater detail below. Ca^2+ buffers were formed by adding various amounts of CaCl2 to this EGTA containing medium. The free Ca^2+ concentrations which resulted were calculated using a computer program (Brooks et al., 1992 Anal. Biochem. 201:119).
Luminescence measurements were carried out in 6×50 mm culture tubes, using a total volume of 0.3 ml, and were started by injection of 5-20 μl of mitochondria or cells. A SAI model 3000 integrating photometer was employed, with AJD sampling at 0.4 seconds intervals driven by Asyst software. Values were transformed into corresponding Ca^2+ concentrations by computer assisted calculations based upon published calibration methods (Allen et al., 1977 Science 195:996; Brini et al., 1995 J. Biol. Chem. 270:9896). For each value, the ratio of observed luminescence (L) to the potential luminescence remaining (Lmax) was calculated, and compared to a calibration curve which relates this ratio to the free Ca^2+ concentration. Thus, complete calibrated progress curves were generated. The total luminescence available initially (Ltotal) must be known and was determined in separate experiments, wherein a saturating Ca^2+ concentration (20 μM) is employed to discharge the aequorin completely. This value allows Lmax to be calculated at any time, as Ltotal minus the sum of luminescence that already occurred.
The calibration data were obtained at an ionic strength of 335 mM and in the presence of 1 mM Mg^2+, to mimic conditions in the mitochondrial matrix, because both factors influence the affinity of aequorin for Ca2+ (Cobbold et al., 1987 Biochem. J. 248:313). Luminescence values were corrected for low background values that are obtained when Ca^2+ is absent before conducting further calculations.

SMILES | influence on activity of the transporter in yeast mitochondria [2] | Rate of increase in matrix Ca^2+ concentration [2] | % of Control [2] [%] | other results
N#CC(C#N)=NNc1cccc(Cl)c1 [CCP, carbonyl cyanide m-chlorophenylhydrazone] |  |  |  | activation of ETH 129 mediated Ca2+ transport [1]: rate enhancement increasing progressively as the CCP concentration rose to 5 μM
O=C(O)CN(CCOCCOCCN(CC(=O)O)CC(=O)O)CC(=O)O [EGTA] |  |  |  | effect on the depression of ΔΨ produced by ETH 129 plus Ca2+ (yeast mitochondria): reversed
CO[C@@H]1C[C@@H](C[C@H]2CC[C@H](C)[C@H]([C@@H](C)C(=O)O)O2)O[C@]2(O[C@](C)([C@H]3CC[C@@](C)([C@@H]4O[C@@H]([C@H]5O[C@@](O)(CO)[C@H](C)C[C@@H]5C)C[C@@H]4C)O3)C[C@H]2C)[C@@H]1C [Nigericin] | not influenced | 2.17 ± .12 nM/s | 111 | 
N.N.N.N.N.N.N.N.N.N.N.N.N.N.[Cl-].[Cl-].[Cl-].[Cl-].[Cl-].[Cl-].[O-2].[O-2].[Ru+3].[Ru+3].[Ru+4] [Ruthenium red] | not influenced | 2.21 ± .23 nM/s | 113 | 
CC(C)[C@@H]1NC(=O)[C@H](C)OC(=O)[C@@H](C(C)C)NC(=O)[C@@H](C(C)C)OC(=O)[C@H](C(C)C)NC(=O)[C@H](C)OC(=O)[C@@H](C(C)C)NC(=O)[C@@H](C(C)C)OC(=O)[C@H](C(C)C)NC(=O)[C@H](C)OC(=O)[C@@H](C(C)C)NC(=O)[C@@H](C(C)C)OC1=O [Valinomycin] | not influenced | 2.32 ± .31 nM/s | 118 | 
C=C1[C@@H]2CC[C@H]3[C@]4(C)C[C@H](O[C@@H]5O[C@H](CO)[C@@H](OS(=O)(=O)O)[C@H](OS(=O)(=O)O)[C@H]5OC(=O)CC(C)C)CC(C(=O)O)(C(=O)O)[C@H]4CC[C@]3(C2)[C@H]1O [carboxyatractyloside] |  |  |  | effect on the depression of ΔΨ produced by ETH 129 plus Ca2+ (yeast mitochondria): no effect
C[C@H](CCC(=O)O)C[C@H](C)C[C@H](C)C(=O)/C=C(\O)[C@H](C)C[C@H](C)C/C=C/[C@@H](C)[C@@H](O)[C@@H](C)[C@@H](O)C[C@@H]1CC[C@@](C)([C@H]2CC[C@@](C)([C@@H](C)O)O2)O1 [ionomycin] |  |  |  | effect on ΔΨ, ionophore together with Ca2+ (yeast mitochondria; BSA absent, CaCl2 plus ionophore, FIG. 11C): not duplicated
